ChEMBL document CHEMBL2203037, “Synthesis and Anti-influenza A Virus Activity of 2,2-Dialkylamantadines and Related Compounds” (ACS Med Chem Lett, 2012)

What was measured:
Influenza B virus [1] = assay: Antiviral activity against amantidine and rimantadine-resistant Influenza B virus (B/HK/5/72) infected in MDCK cells assessed as virus-induced cytopathic effect by MTS assay; format: functional, cell-based; details: B/Hong Kong/05/1972, MDCK
Influenza B virus [2] = assay: Antiviral activity against amantidine and rimantadine-resistant Influenza B virus (B/HK/5/72) infected in MDCK cells assessed as virus-induced cytopathic effect measured 3 days post infection by microscopic analysis; format: functional, cell-based; details: B/Hong Kong/05/1972, MDCK, 72 h
Influenza A virus [3] = assay: Antiviral activity against amantadine-resistant Influenza A virus (A/PR/8/34 (H1N1)) infected in MDCK cells assessed as virus-induced cytopathic effect by MTS assay; format: functional, organism-based, A/Puerto Rico/8/1934(H1N1)
Influenza A virus [4] = assay: Antiviral activity against amantadine-resistant Influenza A virus (A/PR/8/34 (H1N1)) infected in MDCK cells assessed as virus-induced cytopathic effect measured 3 days post infection by microscopic analysis; format: functional, organism-based; details: A/Puerto Rico/8/1934(H1N1), 72 h
[5] = Selectivity index, ratio of CC50 for dog MDCK cells to EC50 for amantadine-resistant Influenza A virus (A/PR/8/34 (H1N1)); format: toxicity, cell-based; details: read-out: Ratio CC50/EC50
[6] = Influenza A virus, A/Puerto Rico/8/1934(H1N1), MDCK

In the case of `CCC1(CC)C2CC3CC(C2)CC1(N(C)C)C3`, the EC50 (Influenza B virus [1]) is reported as > 100 µM, the EC50 (Influenza B virus [2]) is reported as > 100 µM and the EC50 (Influenza A virus [3]; [6]) is reported as 9.6 µM. The EC50 (Influenza A virus [4]) was 0.7 µM.
For `CC(C)C1C2CC3CC(C2)CC1(N)C3` (centres undefined), the EC50 (Influenza B virus [1]) was > 100 µM, the EC50 (Influenza B virus [2]) was > 100 µM and the EC50 (Influenza A virus [3]; [6]) was 1.2 µM. The EC50 (Influenza A virus [4]) was 5.8 µM.
In the case of `CNC12CC3CC(CC(C3)C1(C)C)C2`, the EC50 (Influenza B virus [1]) is reported as > 100 µM, the EC50 (Influenza B virus [2]) is reported as > 100 µM and the EC50 (Influenza A virus [3]; [6]) is reported as 10 µM. The EC50 (Influenza A virus [4]) was 6 µM.
For `CCCC1(CCC)C2CC3CC(C2)CC1(N(C)C)C3`, the EC50 (Influenza B virus [1]) was > 100 µM, the EC50 (Influenza B virus [2]) was > 100 µM and the EC50 (Influenza A virus [3]; [6]) was 6.7 µM. The EC50 (Influenza A virus [4]) was 6 µM.
In the case of `CCNC12CC3CC(CC(C3)C1(C)C)C2`, the EC50 (Influenza B virus [1]) is reported as > 100 µM, the EC50 (Influenza B virus [2]) is reported as > 100 µM and the EC50 (Influenza A virus [3]; [6]) is reported as > 100 µM. The EC50 (Influenza A virus [4]) was > 100 µM.
In the case of `CC(C)C1C2CC3CC(C2)CC1(N(C)C)C3` (centres undefined), the EC50 (Influenza B virus [1]) is reported as > 50 µM, the EC50 (Influenza B virus [2]) is reported as > 100 µM and the EC50 (Influenza A virus [3]; [6]) is reported as 6 µM. The EC50 (Influenza A virus [4]) was 5.1 µM.
For `CCC1(CC)C2CC3CC(C2)CC1(N)C3`, the selectivity ratio [5] was > 50, the EC50 (Influenza B virus [1]) was > 100 µM and the EC50 (Influenza B virus [2]) was > 100 µM. For the same compound, the EC50 (Influenza A virus [3]; [6]) was 1.7 µM and the EC50 (Influenza A virus [4]) was 1.2 µM.
For `CCC1(CC)C2CC3CC(C2)CC1(NC)C3`, the EC50 (Influenza B virus [1]) was > 100 µM, the EC50 (Influenza B virus [2]) was > 100 µM and the EC50 (Influenza A virus [4]) was 4 µM.
For `CC1(C)C2CC3CC(C2)CC1(N1CCCCC1)C3`, the EC50 (Influenza B virus [1]) was > 100 µM, the EC50 (Influenza B virus [2]) was > 100 µM and the EC50 (Influenza A virus [3]; [6]) was > 100 µM. The EC50 (Influenza A virus [4]) was > 100 µM.
In the case of `CC(N)C12CC3CC(CC(C3)C1)C2` (centres undefined) [RIMANTADINE], the EC50 (Influenza B virus [1]) is reported as > 100 µM, the EC50 (Influenza B virus [2]) is reported as > 100 µM and the EC50 (Influenza A virus [4]) is reported as 63 µM.
`NC(=O)c1ncn([C@@H]2O[C@H](CO)[C@@H](O)[C@H]2O)n1` [RIBAVIRIN] showed an EC50 (Influenza B virus [1]) of 8.1 µM, an EC50 (Influenza B virus [2]) of 8 µM and an EC50 (Influenza A virus [3]; mdck) of 8.2 µM.
With `CC(=O)N[C@H]1[C@H]([C@H](O)[C@H](O)CO)OC(C(=O)O)=C[C@@H]1NC(=N)N` [ZANAMIVIR] the EC50 (Influenza A virus [4]) was 6 µM.
With `NC12CC3CC(CC(C3)C1)C2` [AMANTADINE] the EC50 (Influenza B virus [1]) was > 100 µM, the EC50 (Influenza B virus [2]) was > 100 µM and the EC50 (Influenza A virus [4]) was 53 µM.
For `CN(Cc1ccccc1)C12CC3CC(CC(C3)C1(C)C)C2`, the EC50 (Influenza B virus [1]) was > 100 µM, the EC50 (Influenza B virus [2]) was > 100 µM and the EC50 (Influenza A virus [3]; [6]) was > 100 µM. For the same compound, the EC50 (Influenza A virus [4]) was > 100 µM.
For `CC1(C)C2CC3CC(C2)CC1(NCc1ccccc1)C3`, the EC50 (Influenza B virus [1]) was > 100 µM, the EC50 (Influenza B virus [2]) was > 100 µM and the EC50 (Influenza A virus [3]; [6]) was > 100 µM. For the same compound, the EC50 (Influenza A virus [4]) was > 100 µM.
With `CCOC(=O)C1=C[C@@H](OC(CC)CC)[C@H](NC(C)=O)[C@@H](N)C1` [OSELTAMIVIR] the EC50 (Influenza A virus [4]) was 21 µM.
For `CC1(C)C2CC3CC(C2)CC1(N)C3`, the EC50 (Influenza B virus [1]) was > 100 µM, the EC50 (Influenza B virus [2]) was > 100 µM and the EC50 (Influenza A virus [3]; [6]) was 10 µM. It also gave an EC50 (Influenza A virus [4]) of 15 µM.
In the case of `NC12CC3CC(CC(C3)C13CCCCC3)C2`, the EC50 (Influenza B virus [1]) is reported as > 100 µM, the EC50 (Influenza B virus [2]) is reported as > 100 µM and the EC50 (Influenza A virus [3]; [6]) is reported as 0.9 µM. For the same compound, the EC50 (Influenza A virus [4]) was 1.1 µM.
In the case of `CN(C)C12CC3CC(CC(C3)C1(C)C)C2`, the EC50 (Influenza B virus [1]) is reported as > 100 µM, the EC50 (Influenza B virus [2]) is reported as > 100 µM and the EC50 (Influenza A virus [3]; [6]) is reported as 4.8 µM. For the same compound, the EC50 (Influenza A virus [4]) was 4 µM.
With `CN(C)C12CC3(C)CC(CC3(C)C1)C2(C)C` the EC50 (Influenza B virus [1]) was > 100 µM, the EC50 (Influenza B virus [2]) was > 100 µM and the EC50 (Influenza A virus [3]; [6]) was 5.7 µM. It also gave an EC50 (Influenza A virus [4]) of 5.8 µM.
For `CCCC1(CCC)C2CC3CC(C2)CC1(N)C3`, the EC50 (Influenza B virus [1]) was > 100 µM, the EC50 (Influenza B virus [2]) was > 100 µM and the EC50 (Influenza A virus [3]; [6]) was > 100 µM. For the same compound, the EC50 (Influenza A virus [4]) was > 100 µM.
For `CC12CC3CC1(C)CC(N)(C2)C3(C)C`, the EC50 (Influenza B virus [1]) was > 100 µM, the EC50 (Influenza B virus [2]) was > 100 µM and the EC50 (Influenza A virus [3]; [6]) was 4.5 µM. For the same compound, the EC50 (Influenza A virus [4]) was 4.6 µM.
